Results on one molecule are retold here after paper PMC7450057, “Enhancing intracellular accumulation and target engagement of PROTACs with reversible covalent chemistry” (Nature Communications, 2020).

“And” between values parts separate entries of the source, which are not always exact repeats. Identical values can stand only once.

Series [1] concerns the target T1, BTK (Homo sapiens, UniProt Q06187). As to the kind of experiment: BTK degradation in MOLM-14 cells (western blot). It counts as cell-based. Details: endogenous in cells; host or cells: MOLM-14. In general terms: A western blot detects proteins with antibodies after separation by electrophoresis.
The subject of the next series is Maver-1. As to the kind of experiment: IC50 in MCL cell lines (Supplementary Table 2), Maver-1. The note with it: for Cell Viability (%): Maver-1 cells, replicate wells.
Series [2] deals with T1, BTK. As to the kind of experiment: In vitro BTK kinase assay (PhosphoSens). The class given is biochemical. On the set-up: purchased SignalChem B10-10H-10. On the procedure:
BTK kinase activity inhibition IC50 was measured by PhosphoSens® Kinase Assay Kit (Assay Quant Technologies Inc., Cat.# CSKS-AQT0101K). […] Active recombinant BTK was purchased from SignalChem (Cat.# B10-10H-10). All the drugs (3 warhead control and 4 PROTACs) were dissolved in DMSO (10 mM). […] To calculate the IC50, subtract the background fluorescence determined with the “no kinase” control for each time point from the total signal to obtain corrected Relative Fluorescence Units (RFU) values. Plot the corrected RFU vs. Time for each inhibitor concentration and determine the initial reaction rates (slope of the linear portion) for each progress curve for each inhibitor concentration. Then plot velocity (RFU corrected/minute) vs [inhibitor] and determine the IC50 using a 4-parameter logistic fit.

T1 sequence (Q06187 whole entry): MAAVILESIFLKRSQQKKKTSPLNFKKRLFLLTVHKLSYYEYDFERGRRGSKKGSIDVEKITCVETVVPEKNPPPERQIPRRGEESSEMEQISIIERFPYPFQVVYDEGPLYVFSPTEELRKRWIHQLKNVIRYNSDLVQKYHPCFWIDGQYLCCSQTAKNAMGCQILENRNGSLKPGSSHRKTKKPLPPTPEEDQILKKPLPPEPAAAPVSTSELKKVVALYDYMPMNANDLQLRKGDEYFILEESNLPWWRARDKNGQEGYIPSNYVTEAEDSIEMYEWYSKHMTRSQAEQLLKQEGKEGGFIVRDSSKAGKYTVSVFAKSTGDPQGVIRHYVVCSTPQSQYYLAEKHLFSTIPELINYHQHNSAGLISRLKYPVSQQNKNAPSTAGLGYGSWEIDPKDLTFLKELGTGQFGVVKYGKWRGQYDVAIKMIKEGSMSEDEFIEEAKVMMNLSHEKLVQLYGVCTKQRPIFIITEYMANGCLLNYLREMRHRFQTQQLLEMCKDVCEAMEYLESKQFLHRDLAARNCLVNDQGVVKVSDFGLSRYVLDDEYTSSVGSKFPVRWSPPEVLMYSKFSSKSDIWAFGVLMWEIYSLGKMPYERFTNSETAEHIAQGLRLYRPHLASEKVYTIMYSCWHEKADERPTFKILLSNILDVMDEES

In general, IC50 refers to the concentration at which inhibition is half-maximal. Turning to `CN1C(=O)CCC(N2C(=O)c3cccc(NCC(=O)NCCCN(C)C(C)(C)C=C(C#N)C(=O)N4CCCC(n5nc(-c6ccc(Oc7ccccc7)cc6)c6c(N)ncnc65)C4)c3C2=O)C1=O` (centres unmarked) [RC-1-Me], the “Quantification anti-BTK / anti-β-actin (BTK level vs DMSO)” value at BTK [1] (Figure 2d, DMSO = 100 (mean)) worked out at 91.1107. In addition, the “BTK degradation (in words)” value on BTK [1] (MOLM-14 cells, 200 nM, 24 h (Fig. 2d)) is “cannot degrade BTK in cells”. Also, the IC50 in the series with Maver-1 (Maver-1, triplicates) turned out to be 4.2 µM; at BTK [2] (AssayQuant BTK assay kit, 2.5 nM BTK, 1 mM ATP, duplicates, read-out: BTK inhibition IC50) it was 0.0068 µM. Moreover, the “Cell Viability (%)” value in the series on Maver-1 (1.25E-06 M) is 75.2061% and 69.0199% and 79.2231%; in the series with Maver-1 (1.56E-07 M), 95.5665% and 93.8239% and 93.1905%; in the series on Maver-1 (2.50E-06 M), 67.4512% and 61.3175% and 56.7459%; in the series with Maver-1 (3.13E-07 M) it was 94.477% and 92.288% and 91.2083%; with Maver-1 (5.00E-06 M) it was 42.5652% and 49.5981% and 48.479%; in the series on Maver-1 (6.25E-07 M), 91.2247% and 87.9954% and 86.7647%. Besides, in the series with Maver-1 (7.81E-08 M), the “Cell Viability (%)” value is 97.0795% and 100.847% and 94.9725%. For the same molecule, the activity at 2.56 pM at BTK [2] (Supplementary Figure 5, drug concentration 2.56 pM, replicates, read-out: Inhibition(%)) turned out to be 108%. Also, the activity at 12.8 pM on BTK [2] (Supplementary Figure 5, drug concentration 12.8 pM, replicates, read-out: Inhibition(%)) is 101%. Further, the activity at 64 pM at BTK [2] (Supplementary Figure 5, drug concentration 64 pM, replicates, read-out: Inhibition(%)) was 109%. Also, on BTK [2] (Supplementary Figure 5, drug concentration 320 pM, replicates, read-out: Inhibition(%)), the activity at 0.00032 µM was determined as 106%. In addition, at BTK [2] (Supplementary Figure 5, drug concentration 1600 pM, replicates, read-out: Inhibition(%)), the activity at 0.0016 µM was 88.3%. Also, at BTK [2] (Supplementary Figure 5, drug concentration 8000 pM, replicates, read-out: Inhibition(%)), the activity at 0.008 µM is 48.8%. The activity at 0.04 µM at BTK [2] (Supplementary Figure 5, drug concentration 40000 pM, replicates, read-out: Inhibition(%)) amounted to 10.5%. Moreover, on BTK [2] (Supplementary Figure 5, drug concentration 200000 pM, replicates, read-out: Inhibition(%)), the activity at 0.2 µM was 3.98%. Also, the activity at 1 µM at BTK [2] (Supplementary Figure 5, drug concentration 1000000 pM, replicates, read-out: Inhibition(%)) was 1.27%.
